From patent US20220205049A1, “METHODS OF DETECTING AND PREDICTING BREAST CANCER” (priority 2019, published 2022)

System: breast tissue
Experiment: Mifepristone trial: breast tissue biopsies before and after treatment, DNA methylation (EPIC array), EpiDISH cell type composition and WID-BC-index
Format: in vivo, human
Source text: The second set of samples were obtained from the clinical trial “The Effect of a Progesterone Receptor Modulator on Breast Tissue in Women With BRCA-1 and -2 Mutations—a Placebo Controlled RCT” (ClinicalTrials.gov Identifier: NCT01898312; regional ethical review board at Karolinska Institutet permit 2009/144-31/4). Study subjects were healthy premenopausal women aged 18-43 years with regular menstrual cycles lasting 25-35 days and with no contraindications to mifepristone. The main exclusion criteria were: use of any hormonal or intrauterine contraception and pregnancy or breastfeeding 2 months prior to the study; a history of breast cancer or other malignancies and adnexal abnormality upon transvaginal ultrasound examination. All women were instructed to use barrier contraceptive methods throughout the duration of the study.
After signing an informed consent, study subjects were randomised into two groups. One group (i.e. 11 BRCA carriers and 9 controls) was treated with 50 mg mifepristone (one quarter of 200 mg Mifegyne®, Exelgyn, Paris, France) every other day for two months (56 days) starting on the first day of the menstrual cycle. […]
We analysed breast tissue samples from 21 BRCA carriers and 23 healthy controls before and after treatment with either mifepristone or placebo for two months. […]

CC#C[C@]1(O)CC[C@H]2[C@@H]3CCC4=CC(=O)CCC4=C3[C@@H](c3ccc(N(C)C)cc3)C[C@@]21C [mifepristone]
women with downward trend in the WID-BC-index after treatment (breast tissue, after adjustment for fat content, before vs after two months treatment, did not reach statistical significance): 80% | epithelial cell proportion in breast tissue samples after treatment (matched BRCA carrier and control groups, before vs after 50 mg every other day for two months, not seen in the placebo group): statistically significant decrease
